Laboratory results reported in US7731985B2, “4-aminopyrimidines and their use for the antimicrobial treatment of surfaces” (Ciba Specialty Chemicals Corporation, priority 2002, dated 2010).

Key:
Assay in all cases: MIC in microtitre plates (Example 10)
Assay type in all cases: cell-based
Parameters in all cases: unit not given here
Conditions in all cases: microtitre plate, 48 hours at 37° C., ≦20% growth
[1] = test system: Candida albicans ATCC 10231 (=CA)
Description: (§1) Determination of the Minimum Inhibitory Concentration (MIC Value) in Microtitre Plates Casein/soymeal peptone broth for preparation of pre-cultures of test bacteria and yeast Bacteria: • Pseudomonas aeruginosa CIP A-22 (=PA) • Escherichia coli NCTC 8196 (=EC) • Staphylococcus aureus ATCC 9144 (=SA) • Candida albicans ATCC 10231 (=CA) The test substances are pre-dissolved in dimethyl sulfoxide (DMSO) and tested in a dilution series of 1:2. Bacteria and yeast are cultured overnight in CASO broth. All the test organism suspensions are adjusted to an organism count of 1-5×10^6 CFU/ml using […] sodium chloride solution. The test substances are pre-pipetted into microtitre plates in amounts of 8 μl per well. The pre-adjusted organism suspensions are diluted 1:100 in CASO broth and are added in amounts of 192 μl per well to the test substances. The test batches are incubated for 48 hours at 37° C. The incubation, the growth is determined on the basis of the turbidity of the test batches (optical density) at 620 nm in a microplate reader. The minimum inhibitory concentration (MIC value) is the concentration of substance at which (compared to the growth of the control) an appreciable inhibition of growth (≦20% growth) of the test organisms is observed. Three microtitre plates are used for each test organism and substance concentration. All the substances are tested in duplicate.

[2] = test system: Escherichia coli NCTC 8196 (=EC)
Description: as §1

[3] = test system: Pseudomonas aeruginosa CIP A-22 (=PA)
Description: as §1

[4] = test system: Staphylococcus aureus ATCC 9144 (=SA)
Description: as §1

## COc1ccccc1-c1nc(-c2ccccc2)nc(N2CCN(CCN)CC2)c1-c1ccccc1 [compound 27]
[1]
  MIC CA: 60
[2]
  MIC EC: 30
[3]
  MIC PA: >120
[4]
  MIC SA: 30

## NCCCCCCCCCCNc1nc(-c2ccccc2)nc(-c2cccc3ccccc23)c1-c1ccccc1 [compound 5]
[1]
  MIC CA: >120
[2]
  MIC EC: >120
[3]
  MIC PA: >120
[4]
  MIC SA: 7.5

## CCCNc1cc(C)nc(-c2cccnc2)n1 [compound 31]
[1]
  MIC CA: 120
[2]
  MIC EC: >120
[3]
  MIC PA: >120
[4]
  MIC SA: 60

## CCCCCCNc1cc(C)nc(-c2ccc(C)c(F)c2)n1 [compound 119]
[1]
  MIC CA: 120
[2]
  MIC EC: >120
[3]
  MIC PA: >120
[4]
  MIC SA: 7.5

## Cc1cc(NC(C)CC(C)C)nc(C(C)C)n1 (stereo not shown) [compound 146]
[1]
  MIC CA: 120
[2]
  MIC EC: >120
[3]
  MIC PA: >120
[4]
  MIC SA: >120

## Cc1cc(NC(C)CC(C)C)nc(-c2cccnc2)n1 (stereo not shown) [compound 41]
[1]
  MIC CA: 60
[2]
  MIC EC: >120
[3]
  MIC PA: >120
[4]
  MIC SA: 30

## CCCCCCCCCCCCNc1cc(C)nc(C)n1 [compound 89]
[1]
  MIC CA: <3.75
[2]
  MIC EC: <3.75
[3]
  MIC PA: >120
[4]
  MIC SA: <3.75

## CCCCCCCCCCCCNc1cc(C)nc(-c2ccc(-c3ccccc3)cc2)n1 [compound 84]
[1]
  MIC CA: 7.5
[2]
  MIC EC: 15
[3]
  MIC PA: >120
[4]
  MIC SA: 15

## CCCCN(C)c1cc(C)nc(-c2ccncc2)n1 [compound 125]
[1]
  MIC CA: 120
[2]
  MIC EC: >120
[3]
  MIC PA: >120
[4]
  MIC SA: 120

## Cc1cc(NCc2ccccc2)nc(-c2cccnc2)n1 [compound 45]
[1]
  MIC CA: 120
[2]
  MIC EC: >120
[3]
  MIC PA: >120
[4]
  MIC SA: 60

## NCCN1CCN(c2nc(-c3ccccc3)nc(-c3cccc4ccccc34)c2-c2ccccc2)CC1 [compound 3]
[1]
  MIC CA: 7.5
[2]
  MIC EC: 15
[3]
  MIC PA: >120
[4]
  MIC SA: 7.5

## CCCCCCCCCCCCCCNc1cc(C)nc(-c2ccsc2)n1 [compound 74]
[1]
  MIC CA: <3.75
[2]
  MIC EC: 7.5
[3]
  MIC PA: >120
[4]
  MIC SA: <3.75

## CCCCC(CC)CNc1cc(C)nc(C2CC2)n1 (stereo not shown) [compound 137]
[1]
  MIC CA: 15
[2]
  MIC EC: 30
[3]
  MIC PA: >120
[4]
  MIC SA: 15

## CCCCCCCCCCNc1cc(C)nc(C)n1 [compound 101]
[1]
  MIC CA: 7.5
[2]
  MIC EC: 7.5
[3]
  MIC PA: >120
[4]
  MIC SA: 7.5

## CCCCCCCCCCNc1cc(C)nc(-c2csc(C)n2)n1 [compound 106]
[1]
  MIC CA: 15
[2]
  MIC EC: 15
[3]
  MIC PA: >120
[4]
  MIC SA: <3.75

## Cc1ccc(-c2nc(-c3ccccc3)nc(NCCOCCOCCN)c2-c2ccccc2)cc1 [compound 13]
[1]
  MIC CA: 30
[2]
  MIC EC: 15
[3]
  MIC PA: >120
[4]
  MIC SA: 15

## CCCCCCCCCCCCCCNc1cc(C)nc(-c2ccc(C)cc2)n1 [compound 79]
[1]
  MIC CA: <3.75
[2]
  MIC EC: <3.75
[3]
  MIC PA: >120
[4]
  MIC SA: <3.75

## CCCCCCCCCCCCNc1cc(C)nc(-c2ccncc2)n1 [compound 88]
[1]
  MIC CA: 7.5
[2]
  MIC EC: 15
[3]
  MIC PA: <120
[4]
  MIC SA: 15

## CCCCCCCCCCCCNc1cc(C)nc(C2CC2)n1 [compound 92]
[1]
  MIC CA: 7.5
[2]
  MIC EC: 15
[3]
  MIC PA: >120
[4]
  MIC SA: <3.75

## Cc1ccc(-c2nc(-c3ccccc3)nc(N3CCC(CCCC4CCNCC4)CC3)c2-c2ccccc2)cc1 [compound 15]
[1]
  MIC CA: >120
[2]
  MIC EC: >120
[3]
  MIC PA: >120
[4]
  MIC SA: 15

## Cc1ccc(-c2nc(C)cc(NC(C)CC(C)C)n2)cc1 (stereo not shown) [compound 144]
[1]
  MIC CA: 120
[2]
  MIC EC: >120
[3]
  MIC PA: >120
[4]
  MIC SA: 60

## NCCN1CCN(c2nc(-c3ccccc3)nc(-c3cccc(C(F)(F)F)c3)c2-c2ccccc2)CC1 [compound 19]
[1]
  MIC CA: 8
[2]
  MIC EC: 15
[3]
  MIC PA: >120
[4]
  MIC SA: 7.5

## CCCCCCCCCCCCCCNc1cc(C)nc(-c2ccncc2)n1 [compound 77]
[1]
  MIC CA: 15
[2]
  MIC EC: 60
[3]
  MIC PA: >120
[4]
  MIC SA: 7.5

## CCCCC(CC)CNc1cc(C)nc(-c2cccnc2)n1 (stereo not shown) [compound 42]
[1]
  MIC CA: 30
[2]
  MIC EC: 120
[3]
  MIC PA: >120
[4]
  MIC SA: <3.75

## NCCCOCCCCOCCCNc1nc(-c2ccccc2)nc(-c2ccc(F)cc2)c1-c1ccccc1 [compound 9]
[1]
  MIC CA: 30
[2]
  MIC EC: 15
[3]
  MIC PA: >120
[4]
  MIC SA: 15

## CCCCCCCCNc1cc(C)nc(C(C)C)n1 [compound 68]
[1]
  MIC CA: 15
[2]
  MIC EC: 30
[3]
  MIC PA: >120
[4]
  MIC SA: 15

## NCCCCCCCCNc1nc(-c2ccccc2)nc(-c2cccc3ccccc23)c1-c1ccccc1 [compound 4]
[1]
  MIC CA: 15
[2]
  MIC EC: 30
[3]
  MIC PA: >120
[4]
  MIC SA: 7.5

## CCCCN(C)c1cc(C)nc(C2CC2)n1 [compound 127]
[1]
  MIC CA: 60
[2]
  MIC EC: >120
[3]
  MIC PA: >120
[4]
  MIC SA: 60

## CCCCCCCCCCCCNc1cc(C)nc(-c2cccnc2)n1 [compound 36]
[1]
  MIC CA: 7.5
[2]
  MIC EC: 15
[3]
  MIC PA: 60
[4]
  MIC SA: 7.5

## Cc1cc(N2CCCCCC2)nc(-c2cccnc2)n1 [compound 56]
[1]
  MIC CA: 120
[2]
  MIC EC: >120
[3]
  MIC PA: >120
[4]
  MIC SA: 60

## CCCCN(C)c1cc(C)nc(-c2cccnc2)n1 [compound 53]
[1]
  MIC CA: 120
[2]
  MIC EC: >120
[3]
  MIC PA: >120
[4]
  MIC SA: 60

## CCCCCCNc1cc(C)nc(C)n1 [compound 113]
[1]
  MIC CA: 30
[2]
  MIC EC: 120
[3]
  MIC PA: >120
[4]
  MIC SA: 7.5

## CCCCC(CC)CNc1cc(C)nc(C)n1 (stereo not shown) [compound 135]
[1]
  MIC CA: 30
[2]
  MIC EC: 120
[3]
  MIC PA: >120
[4]
  MIC SA: 60

## CCCCN(C)c1cc(C)nc(-c2ccc(C)c(F)c2)n1 [compound 130]
[1]
  MIC CA: >120
[2]
  MIC EC: >120
[3]
  MIC PA: >120
[4]
  MIC SA: 120

## CCCCCCNc1cc(C)nc(-c2ccc(C(C)(C)C)cc2)n1 [compound 109]
[1]
  MIC CA: 30
[2]
  MIC EC: 60
[3]
  MIC PA: >120
[4]
  MIC SA: 15

## CNCCN(C)c1nc(-c2ccccc2)nc(-c2cccc(C(F)(F)F)c2)c1-c1ccccc1 [compound 17]
[1]
  MIC CA: 15
[2]
  MIC EC: 30
[3]
  MIC PA: >120
[4]
  MIC SA: 15

## CCCCC(CC)CNc1cc(C)nc(-c2ccccc2)n1 (stereo not shown) [compound 133]
[1]
  MIC CA: >120
[2]
  MIC EC: >120
[3]
  MIC PA: >120
[4]
  MIC SA: 15
